Measurements as given in PMC4051630, “A Comparison of Protein Kinases Inhibitor Screening Methods Using Both Enzymatic Activity and Binding Affinity Determination” (PLoS ONE, 2014).

Legend:
Experiment in all cases: Differential Scanning Fluorimetry (DSF) Tm shift
Format in all cases: binding
[1] = target: T1, FAK2 Catalytic Domain (Homo sapiens, UniProt Q14289); settings: 2 µM protein, 10 µM inhibitor, average of 3 experiments, each in duplicate
T1 construct: For all of them, we expressed and purified the catalytic domain separately; His-tag; made in house; host or cells: Escherichia coli

[2] = target: T2, CDK2 + Cyclin E (Homo sapiens, UniProt P24941); settings: CDK2 + Cyclin E; 2 µM protein, 10 µM inhibitor; average of 3 experiments, each in duplicate
T2 construct: CDK2 (P24941); 1–299; His-tag; made in house; host or cells: Escherichia coli

[3] = target: T3, STK3 Catalytic Domain (Homo sapiens, UniProt Q13188); settings: 2 µM protein, 10 µM inhibitor, average of 3 experiments, each in duplicate
T3 construct: For all of them, we expressed and purified the catalytic domain separately; His-tag; made in house; host or cells: Escherichia coli
T3 sequence (Q13188 27-278 limits assumed): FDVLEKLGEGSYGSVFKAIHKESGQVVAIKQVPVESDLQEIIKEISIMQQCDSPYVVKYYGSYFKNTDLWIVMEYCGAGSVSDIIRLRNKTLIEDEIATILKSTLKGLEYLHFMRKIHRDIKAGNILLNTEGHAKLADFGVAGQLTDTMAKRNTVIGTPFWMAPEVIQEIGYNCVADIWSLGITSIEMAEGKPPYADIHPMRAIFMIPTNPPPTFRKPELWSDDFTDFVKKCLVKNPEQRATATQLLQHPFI

[4] = target: T4, DMPK Catalytic Domain (Homo sapiens, UniProt Q09013); settings: 2 µM protein, 10 µM inhibitor, average of 3 experiments, each in duplicate
T4 construct: For all of them, we expressed and purified the catalytic domain separately; His-tag; made in house; host or cells: Escherichia coli
T4 sequence (Q09013 71-339 limits assumed): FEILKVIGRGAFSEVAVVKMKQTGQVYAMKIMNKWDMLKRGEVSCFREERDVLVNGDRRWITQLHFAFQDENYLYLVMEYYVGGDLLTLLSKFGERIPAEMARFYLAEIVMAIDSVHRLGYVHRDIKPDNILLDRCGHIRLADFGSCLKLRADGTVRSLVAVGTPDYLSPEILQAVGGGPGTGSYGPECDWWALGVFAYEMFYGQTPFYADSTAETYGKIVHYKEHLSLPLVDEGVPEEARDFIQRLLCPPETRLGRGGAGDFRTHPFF

[5] = target: T5, AKT3 Catalytic Domain (Homo sapiens, UniProt Q9Y243); settings: 2 µM protein, 10 µM inhibitor, average of 3 experiments, each in duplicate
T5 construct: AKT3 (Q9Y243); CD; His-tag; made in house; host or cells: Escherichia coli

[6] = target: T6, CHK2 Catalytic Domain (Homo sapiens, UniProt O96017); settings: 2 µM protein, 10 µM inhibitor, average of 3 experiments, each in duplicate
T6 construct: For all of them, we expressed and purified the catalytic domain separately; His-tag; made in house; host or cells: Escherichia coli

[7] = target: SRC Catalytic Domain+SH2+SH3 (Homo sapiens, UniProt P12931); settings: 2 µM protein, 10 µM inhibitor, average of 3 experiments, each in duplicate
[8] = target: T7, CDK2 + Cyclin A (Homo sapiens, UniProt P24941); settings: CDK2 + Cyclin A; 2 µM protein, 10 µM inhibitor; average of 3 experiments, each in duplicate
T7 construct: CDK2 (P24941); 1–299; His-tag; made in house; host or cells: Escherichia coli

[9] = target: T8, PAK4 Catalytic Domain (Homo sapiens, UniProt O96013); settings: 2 µM protein, 10 µM inhibitor, average of 3 experiments, each in duplicate
T8 construct: For all of them, we expressed and purified the catalytic domain separately; His-tag; made in house; host or cells: Escherichia coli

[10] = target: T9, STK3 Catalytic domain+SARAH (Homo sapiens, UniProt Q13188); settings: 2 µM protein, 10 µM inhibitor, average of 3 experiments, each in duplicate
T9 construct: for 8, we also made a longer version containing one or more additional domains; His-tag; made in house; host or cells: Escherichia coli
T9 sequence (Q13188 1-491): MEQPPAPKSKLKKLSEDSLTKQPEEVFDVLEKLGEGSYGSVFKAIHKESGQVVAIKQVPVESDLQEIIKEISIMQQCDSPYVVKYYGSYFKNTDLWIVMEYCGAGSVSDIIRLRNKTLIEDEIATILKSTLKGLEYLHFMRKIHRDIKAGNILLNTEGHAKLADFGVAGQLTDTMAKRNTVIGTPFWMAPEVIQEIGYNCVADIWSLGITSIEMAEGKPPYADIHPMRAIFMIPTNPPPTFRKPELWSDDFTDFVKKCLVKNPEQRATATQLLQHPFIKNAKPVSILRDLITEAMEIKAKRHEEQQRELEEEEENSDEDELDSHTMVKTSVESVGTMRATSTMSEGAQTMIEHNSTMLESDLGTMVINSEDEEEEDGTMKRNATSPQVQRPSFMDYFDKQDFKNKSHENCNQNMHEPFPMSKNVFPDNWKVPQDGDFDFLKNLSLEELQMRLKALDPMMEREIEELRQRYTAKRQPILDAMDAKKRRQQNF

[11] = target: T10, PAK4 Catalytic Domain+PBD (Homo sapiens, UniProt O96013); settings: 2 µM protein, 10 µM inhibitor, average of 3 experiments, each in duplicate
T10 construct: for 8, we also made a longer version containing one or more additional domains; His-tag; made in house; host or cells: Escherichia coli

[12] = target: T11, FES Catalytic Domain+SH2 (Homo sapiens, UniProt P07332); settings: 2 µM protein, 10 µM inhibitor, average of 3 experiments, each in duplicate
T11 construct: for 8, we also made a longer version containing one or more additional domains; His-tag; made in house; host or cells: Escherichia coli

[13] = target: T12, PAK7 Catalytic Domain (Homo sapiens, UniProt Q9P286); settings: 2 µM protein, 10 µM inhibitor, average of 3 experiments, each in duplicate
T12 construct: For all of them, we expressed and purified the catalytic domain separately; His-tag; made in house; host or cells: Escherichia coli

[14] = target: T13, FES Catalytic Domain (Homo sapiens, UniProt P07332); settings: 2 µM protein, 10 µM inhibitor, average of 3 experiments, each in duplicate
T13 construct: For all of them, we expressed and purified the catalytic domain separately; His-tag; made in house; host or cells: Escherichia coli
T13 sequence (P07332 561-822 limits assumed): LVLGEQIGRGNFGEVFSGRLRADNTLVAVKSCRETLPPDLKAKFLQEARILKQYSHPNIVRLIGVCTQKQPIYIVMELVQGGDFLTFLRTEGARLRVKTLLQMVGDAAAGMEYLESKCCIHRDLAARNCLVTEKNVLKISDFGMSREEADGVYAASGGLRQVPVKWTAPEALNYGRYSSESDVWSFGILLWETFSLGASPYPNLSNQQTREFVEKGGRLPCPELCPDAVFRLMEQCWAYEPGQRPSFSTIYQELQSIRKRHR

T8 sequence (O96013 321-572 limits assumed): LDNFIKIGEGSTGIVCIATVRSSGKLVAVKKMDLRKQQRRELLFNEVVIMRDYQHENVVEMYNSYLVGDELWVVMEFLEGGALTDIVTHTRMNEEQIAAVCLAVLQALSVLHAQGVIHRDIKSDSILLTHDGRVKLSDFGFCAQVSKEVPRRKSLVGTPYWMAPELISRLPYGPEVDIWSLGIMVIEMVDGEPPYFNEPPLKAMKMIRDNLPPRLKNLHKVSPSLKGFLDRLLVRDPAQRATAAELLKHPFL
T12 sequence (Q9P286 449-700 limits assumed): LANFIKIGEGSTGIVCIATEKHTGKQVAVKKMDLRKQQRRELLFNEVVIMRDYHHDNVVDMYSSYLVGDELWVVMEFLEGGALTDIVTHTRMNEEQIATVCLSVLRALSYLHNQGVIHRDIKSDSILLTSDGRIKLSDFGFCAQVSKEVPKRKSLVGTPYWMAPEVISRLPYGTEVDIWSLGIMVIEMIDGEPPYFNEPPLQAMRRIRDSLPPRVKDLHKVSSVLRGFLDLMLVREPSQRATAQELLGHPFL
T5 sequence (Q9Y243 122-479): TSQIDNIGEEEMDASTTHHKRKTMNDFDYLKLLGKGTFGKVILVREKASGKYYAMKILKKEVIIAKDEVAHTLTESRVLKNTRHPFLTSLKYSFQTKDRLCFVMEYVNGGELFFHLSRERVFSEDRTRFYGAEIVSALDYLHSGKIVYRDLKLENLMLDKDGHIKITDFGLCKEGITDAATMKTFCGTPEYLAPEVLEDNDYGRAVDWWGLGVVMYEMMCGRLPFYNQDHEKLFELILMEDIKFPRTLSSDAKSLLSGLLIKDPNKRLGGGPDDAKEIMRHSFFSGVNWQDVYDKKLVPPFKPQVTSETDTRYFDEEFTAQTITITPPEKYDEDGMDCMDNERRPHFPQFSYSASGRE
T11 sequence (P07332 448-822 limits assumed): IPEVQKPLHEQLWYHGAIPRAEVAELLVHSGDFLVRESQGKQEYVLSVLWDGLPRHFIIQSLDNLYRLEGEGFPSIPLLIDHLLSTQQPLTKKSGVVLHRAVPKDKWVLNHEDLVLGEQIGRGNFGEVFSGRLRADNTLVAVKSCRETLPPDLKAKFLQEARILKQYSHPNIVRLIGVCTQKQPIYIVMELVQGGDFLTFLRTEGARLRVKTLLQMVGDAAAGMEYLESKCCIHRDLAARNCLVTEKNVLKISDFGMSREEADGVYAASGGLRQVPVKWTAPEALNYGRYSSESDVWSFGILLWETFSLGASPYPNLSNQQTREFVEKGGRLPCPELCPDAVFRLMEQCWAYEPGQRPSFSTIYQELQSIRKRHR
SRC Catalytic Domain+SH2+SH3, sequence (P12931 84-523 limits assumed): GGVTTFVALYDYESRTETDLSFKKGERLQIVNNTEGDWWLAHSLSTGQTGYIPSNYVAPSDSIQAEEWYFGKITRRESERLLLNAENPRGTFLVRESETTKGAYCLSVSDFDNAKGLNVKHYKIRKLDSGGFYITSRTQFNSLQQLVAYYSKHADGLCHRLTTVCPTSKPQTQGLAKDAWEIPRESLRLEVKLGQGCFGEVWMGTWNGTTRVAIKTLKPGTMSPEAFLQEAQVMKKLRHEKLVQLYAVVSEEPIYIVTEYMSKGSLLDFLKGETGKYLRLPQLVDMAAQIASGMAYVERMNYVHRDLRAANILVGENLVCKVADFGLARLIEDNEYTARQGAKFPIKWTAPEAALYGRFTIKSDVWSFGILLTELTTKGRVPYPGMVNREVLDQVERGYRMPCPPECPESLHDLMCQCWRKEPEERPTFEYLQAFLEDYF
T10 sequence (O96013 whole entry, the tested form may be a part): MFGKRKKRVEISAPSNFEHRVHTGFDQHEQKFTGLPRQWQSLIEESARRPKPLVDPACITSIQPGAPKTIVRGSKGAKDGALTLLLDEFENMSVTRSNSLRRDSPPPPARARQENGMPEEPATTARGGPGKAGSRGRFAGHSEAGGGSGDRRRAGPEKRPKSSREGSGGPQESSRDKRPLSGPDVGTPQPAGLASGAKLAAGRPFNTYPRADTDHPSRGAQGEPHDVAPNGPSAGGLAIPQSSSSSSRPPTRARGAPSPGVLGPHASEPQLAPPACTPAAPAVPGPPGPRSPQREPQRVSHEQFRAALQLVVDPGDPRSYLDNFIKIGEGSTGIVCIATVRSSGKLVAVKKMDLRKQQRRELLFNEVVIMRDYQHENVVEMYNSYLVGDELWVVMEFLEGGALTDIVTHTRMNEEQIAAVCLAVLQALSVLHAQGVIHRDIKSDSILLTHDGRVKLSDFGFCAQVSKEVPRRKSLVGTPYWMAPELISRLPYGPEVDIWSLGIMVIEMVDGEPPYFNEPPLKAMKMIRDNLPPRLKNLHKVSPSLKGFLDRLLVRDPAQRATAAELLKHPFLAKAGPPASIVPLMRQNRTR
T1 sequence (Q14289 425-683 limits assumed): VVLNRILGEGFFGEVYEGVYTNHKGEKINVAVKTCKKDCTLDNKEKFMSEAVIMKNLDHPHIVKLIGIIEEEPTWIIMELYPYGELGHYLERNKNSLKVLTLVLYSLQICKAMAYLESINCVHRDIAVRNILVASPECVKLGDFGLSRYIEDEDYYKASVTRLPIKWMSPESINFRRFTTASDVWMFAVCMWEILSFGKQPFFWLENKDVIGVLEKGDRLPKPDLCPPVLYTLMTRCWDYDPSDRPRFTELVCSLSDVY
T6 sequence (O96017 220-486 limits assumed): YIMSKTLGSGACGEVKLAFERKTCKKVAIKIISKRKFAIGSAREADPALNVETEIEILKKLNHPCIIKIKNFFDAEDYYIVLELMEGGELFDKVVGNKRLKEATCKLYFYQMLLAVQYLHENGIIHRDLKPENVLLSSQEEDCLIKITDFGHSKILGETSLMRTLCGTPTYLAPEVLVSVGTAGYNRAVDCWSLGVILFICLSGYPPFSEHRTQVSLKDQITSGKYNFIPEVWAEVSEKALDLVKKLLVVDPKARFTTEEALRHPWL

| Structure (SMILES) | Melting temperature (Tm) shift [1] [degrees Celcius] | Melting temperature (Tm) shift [2] [degrees Celcius] | Melting temperature (Tm) shift [3] [degrees Celcius] | Melting temperature (Tm) shift [4] [degrees Celcius] | Melting temperature (Tm) shift [5] [degrees Celcius] | Melting temperature (Tm) shift [6] [degrees Celcius] | Melting temperature (Tm) shift [7] [degrees Celcius] | Melting temperature (Tm) shift [8] [degrees Celcius] | Melting temperature (Tm) shift [9] [degrees Celcius] | Melting temperature (Tm) shift [10] [degrees Celcius] | Melting temperature (Tm) shift [11] [degrees Celcius] | Melting temperature (Tm) shift [12] [degrees Celcius] | Melting temperature (Tm) shift [13] [degrees Celcius] | Melting temperature (Tm) shift [14] [degrees Celcius] |
| --- | --- | --- | --- | --- | --- | --- | --- | --- | --- | --- | --- | --- | --- | --- |
| N#CC(c1ccnc(NCCc2cccnc2)n1)c1nc2ccccc2s1 (stereo not shown) [JNK Inhibitor V] | 0.4 | 0.3 | 0.2 | 0.8 | 0.0 | 0.3 | 0.1 | 0.2 | 0.1 | 0.3 | 0.1 | 0.0 | 0.0 | – |
| Cl.NCCCn1cc(C2=C(c3c[nH]c4ccccc34)C(=O)NC2=O)c2ccccc21 [Bisindolylmaleimide III, Hydrochloride] | 0.7 | 0.7 | 1.8 | 4.2 | 0.6 | 5.6 | 0.0 | 2.1 | 1.4 | 4.6 | 1.6 | 0.5 | 1.1 | 0.8 |
| Nc1ncnc2c1c(I)cn2[C@@H]1O[C@H](CO)[C@@H](O)[C@H]1O [5-Iodotubercidin] | 0.4 | 1.3 | 3.0 | 0.2 | 0.0 | 0.6 | 0.1 | 2.5 | 0.7 | 1.5 | 0.7 | 0.0 | 0.4 | 1.0 |
| Cl.Cl.O=S(=O)(NCCNC/C=C/c1ccc(Br)cc1)c1cccc2cnccc12 [H-89, Dihydrochloride] | 0.8 | 0.3 | 0.0 | 0.0 | 0.3 | 0.5 | 0.0 | 0.5 | 0.4 | 0.4 | 0.0 | 0.2 | 0.3 | 0.4 |
| CC(C)c1nn(-c2c(Cl)cccc2Cl)c2nc(Cc3ccc(OCCO)cc3)[nH]c(=O)c12 [Cdk/Crk Inhibitor] | 0.5 | 5.5 | 0.8 | 1.3 | 0.0 | 0.6 | – | 7.5 | 1.9 | 0.2 | 1.1 | 0.1 | 2.0 | 0.6 |
| O=C1c2ccccc2-c2n[nH]c3cccc1c23 [JNK Inhibitor II] | 1.0 | 0.3 | 2.0 | 1.4 | 0.1 | 5.2 | – | 1.2 | 1.1 | 1.3 | 1.0 | 0.9 | 0.7 | 2.6 |
| O=c1c(O)c(-c2ccc(O)c(O)c2)oc2cc(O)c(O)c(O)c12 [Quercetagetin] | 0.2 | 0.7 | 0.2 | – | 2.5 | 1.1 | 0.0 | 0.2 | 0.0 | 0.5 | 0.3 | 0.1 | 0.1 | 0.1 |
